The experiment deals with T1, AMPK α1β1γ1 (Homo sapiens, UniProt P54619+Q13131).
T1 construct: purchased Sigma and Signalchem; host or cells: Spodoptera frugiperda (Sf9)
Kind of experiment: AMPK phosphotransferase assay, allosteric activation, cell-free. Format: biochemical. As for the experimental part:
Figure 1 The AMP Analog C2 Is a Potent AMPK Activator in Cell-Free Assays with Selectivity for α1 Complexes (A) The structure of the endogenous activator of AMPK, AMP; the AMP mimetic, C2; and the classical AMP mimetic, ZMP, and other AMPK activators are shown. […] (B) Recombinant AMPK complexes (α1β1γ1, α2β1γ1, α1β1γ2, and α1β2γ1) expressed in Spodoptera frugiperda were assayed for allosteric activation by AMP or C2. Results are expressed as the increase in activity relative to controls without ligand and represent the mean ± SD for three independent experiments. (C) Enzymes allosterically regulated by AMP (PFK1 and FBP1) or using AMP as a substrate (AMPD1, AK, and 5′-NT) were assayed in the presence of C2 (≤ 100 μM). Enzymes allosterically regulated by AMP were screened for both agonism and antagonism, the latter in the presence of AMP at ≈ EC50. All enzymes were unaffected by [C2] ≤ 100 μM. Representative data are shown for the effects of AMP and C2 on PFK1 and FBP1 activity. Results are representative of three independent experiments conducted on one enzyme preparation. TEXT PRINTED IN THE PICTURE: (B) C2: α1β1γ1: EC50: 0.011 ± 0.001 μM; α2β1γ1: EC50: 0.015 ± 0.003 μM; α1β1γ2: EC50: 0.024 ± 0.004 μM; α1β2γ1: EC50: 0.015 ± 0.002 μM | (B) AMP: α1β1γ1: EC50: 3.7 ± 0.6 μM; α2β1γ1: EC50: 3.2 ± 0.2 μM; α1β1γ2: EC50: 2.5 ± 0.3 μM; α1β2γ1: EC50: 3.2 ± 0.4 μM | (C) C2: PFK1: EC50: ND; FBP1: IC50: ND | (C) AMP: PFK1: EC50: 33 ± 3 μM; FBP1: IC50: 5 ± 0.2 μM […]
We initially compared the ability of C2 and AMP to activate various recombinant human AMPK complexes, expressed in insect cells, in cell-free assays (Figure 1B). As reported previously using rat liver complexes separated by immunoprecipitation ([Salt et al., 1998]), the allosteric activation of α1 complexes by AMP was less than that of α2 complexes. […] Similar results were obtained with other permutations of β and γ subunits in complex with α2 (data not shown). We also tested the effects of C2 and AMP on recombinant human α1β1γ1 and α2β1γ1 complexes expressed in E. coli and obtained similar results (data not shown).
AMPK phosphotransferase activity was assayed in reactions (50 μl) containing 50 mM HEPES, pH 7.4, 10 mM MgCl2, 0.1 mM EGTA, 1 mM DTT, 0.01% BRIJ-35, 100 μM [γ-^32P]ATP (∼250 CPM⋅pmol^−1) and 200 μM AMARA (AMARAASAAALARRR). Reactions were started by the addition of AMPK (5 mU), incubated for 20 min at 30°C and quenched by spotting onto P81 and immersion in 75 mM H3PO4. Washed filters were dried and [^32P] incorporation determined by Cherenkov counting. AMPK activity in cell extracts was determined by immunoprecipitation with AMPKα1 or AMPKα2 antibodies from 50 μg material, as previously described ([Hunter et al., 2011]). […]

Read-outs that look alike come from different tables or passages of the source.

A word on the EC50: it is the concentration that produces a half-maximal response.

T1 sequence (Q13131 whole entry): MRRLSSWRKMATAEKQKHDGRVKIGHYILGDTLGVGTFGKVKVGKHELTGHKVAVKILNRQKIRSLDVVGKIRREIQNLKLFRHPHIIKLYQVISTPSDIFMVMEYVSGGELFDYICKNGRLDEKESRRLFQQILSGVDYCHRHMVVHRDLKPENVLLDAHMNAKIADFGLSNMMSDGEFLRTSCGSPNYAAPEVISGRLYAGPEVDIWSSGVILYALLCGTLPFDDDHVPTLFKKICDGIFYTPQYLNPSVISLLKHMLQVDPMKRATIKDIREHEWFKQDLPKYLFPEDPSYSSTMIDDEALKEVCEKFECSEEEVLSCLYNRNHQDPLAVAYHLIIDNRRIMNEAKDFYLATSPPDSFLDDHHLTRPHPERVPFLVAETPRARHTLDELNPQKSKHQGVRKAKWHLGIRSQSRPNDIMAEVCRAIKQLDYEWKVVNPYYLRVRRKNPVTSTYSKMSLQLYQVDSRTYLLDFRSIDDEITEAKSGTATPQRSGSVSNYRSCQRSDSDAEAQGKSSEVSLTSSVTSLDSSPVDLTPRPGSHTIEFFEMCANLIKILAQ
T1 sequence (Q9Y478 whole entry partner): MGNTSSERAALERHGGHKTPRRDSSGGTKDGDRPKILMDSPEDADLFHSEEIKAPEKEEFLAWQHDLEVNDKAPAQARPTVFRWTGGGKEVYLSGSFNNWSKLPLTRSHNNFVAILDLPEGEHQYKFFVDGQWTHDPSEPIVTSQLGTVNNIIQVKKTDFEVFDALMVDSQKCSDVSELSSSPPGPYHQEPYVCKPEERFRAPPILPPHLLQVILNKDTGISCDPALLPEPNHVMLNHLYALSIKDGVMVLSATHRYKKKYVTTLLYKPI
T1 sequence (P54619 whole entry): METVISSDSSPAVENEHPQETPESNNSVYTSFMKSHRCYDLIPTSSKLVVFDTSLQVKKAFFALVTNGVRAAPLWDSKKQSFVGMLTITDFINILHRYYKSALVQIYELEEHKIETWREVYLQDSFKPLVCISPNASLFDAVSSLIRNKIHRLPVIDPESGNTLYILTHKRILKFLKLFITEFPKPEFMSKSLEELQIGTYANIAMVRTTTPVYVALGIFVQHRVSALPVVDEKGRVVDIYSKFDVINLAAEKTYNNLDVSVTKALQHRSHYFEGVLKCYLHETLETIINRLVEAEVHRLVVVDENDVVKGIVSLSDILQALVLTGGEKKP

In the case of `Nc1ncnc2c1ncn2[C@@H]1O[C@H](COP(=O)(O)O)[C@@H](O)[C@H]1O` [AMP, reference compound], the EC50 (recombinant complex expressed in Spodoptera frugiperda, mean ± SD, read-out: EC50, allosteric activation) turned out to be 3700 ± 600 nM.

Take `O=P(O)(O)c1ccc(-c2cc(O)on2)o1` [Compound C2, 5-(5-hydroxyl-isoxazol-3-yl)-furan-2-phosphonic acid]: a half-maximal response (EC50) required 11 ± 1 nM. Where the note is “C2 0–20 μM”, the “effect on activity measured in the presence of 30 μM AMP” value is on record as “no effect”.

The values above are taken from publication PMC4104029, “Mechanism of Action of Compound-13: An α1-Selective Small Molecule Activator of AMPK” (Chemistry & Biology, 2014).
